Source: PubChem BioAssay (NCI)
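Values below derive from 48-hour exposures of cells grown in 96-well plates, with endpoints linearly interpolated between the two concentrations bracketing the appropriate inhibition level. TGI is the concentration that stops growth completely.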

Key:
Experiment in all cases: NCI-60 cell line screen, 48 h
[1] = tested on: CCRF-CEM leukemia
[2] = tested on: IGROV1 ovarian
[3] = tested on: KM12 colon
[4] = tested on: MDA-MB-231 breast
[5] = tested on: MDA-MB-435
[6] = tested on: NCI/ADR-RES ovarian
[7] = tested on: OVCAR-3 ovarian
[8] = tested on: RXF 393 renal
[9] = tested on: T-47D breast
[10] = tested on: UACC-257 melanoma
[11] = tested on: COLO 205 colon

| Structure (SMILES) | TGI [1] [µM] | TGI [2] [µM] | TGI [3] [µM] | TGI [4] [µM] | TGI [5] [µM] | TGI [6] [µM] | TGI [7] [µM] | TGI [8] [µM] | TGI [9] [µM] | TGI [10] [µM] | TGI [11] [µM] |
| --- | --- | --- | --- | --- | --- | --- | --- | --- | --- | --- | --- |
| O=C(C1OC1c1ccc(Br)cc1O)C12CC3CC(CC(C3)C1)C2 (stereo not given) | > 100 | > 100 | 41.4 | 43.6 | 30.4 | > 100 | 84.6 | 72.4 | > 100 | > 100 |  |
| Nn1c(Nc2ccc(S(=O)(=O)Nc3ncccn3)cc2)nnc(/C=C/c2c(O)ccc3ccccc23)c1=O | 47.9 | > 100 |  | 71 | 69.4 | 79.7 | 55.9 | 80.3 | 96.8 | 55.2 |  |
| N#C/C(=C1/Sc2c(nc[nH]c2=O)N1c1ccccc1)c1nc2ccccc2[nH]1 | > 100 | > 100 | > 100 |  |  |  | > 100 |  |  | > 100 | > 100 |
| Cc1ccc(NC(=O)CC2Sc3ccccc3NC2=O)cc1C (stereo not given) | 92.3 | > 100 | > 100 |  |  |  | > 100 | > 100 |  | > 100 | > 100 |
| Nc1c(S(=O)(=O)O)cc2cc(S(=O)(=O)O)ccc2c1N=Nc1ccc(-c2ccc(N=Nc3c(N)c(S(=O)(=O)O)cc4cc(S(=O)(=O)O)ccc34)c(S(=O)(=O)O)c2)cc1 | > 100 | > 100 | > 100 |  |  | > 100 | > 100 | > 100 |  | > 100 | > 100 |
| Oc1ccc(-c2nc3ccc(Br)cc3s2)cc1 | 16.5 | 33.6 | 41.6 | 45 | 53.4 | 67.3 | 31.8 | > 100 |  | 51.1 | 33.7 |
| COc1cccc(Nc2nc(-c3cccs3)nc3cc(OC)c(OC)cc23)c1 |  | 69.3 | 87.1 | 53.8 | 96.4 | 63.8 | 51.1 |  | > 100 | > 100 | 62.3 |
| CC1CN(C)c2ccccc2N=C1NN (stereo not given) | > 100 | > 100 | > 100 | > 100 | > 100 | > 100 | > 100 | 78.6 |  | > 100 | > 100 |
| COc1ccc(-n2c(C)nc3ccc(NC(=S)Nc4ccccc4)cc3c2=O)cc1 |  | > 100 | > 100 | > 100 | > 100 | > 100 | > 100 | > 100 | > 100 | > 100 | > 100 |
| Nc1nc(SCCC/C=C/I)nc2c1ncn2C1OC(COP(=O)(O)O)C(O)C1O (stereo not given) | > 100 | > 100 | > 100 |  |  |  | > 100 | > 100 |  | > 100 | > 100 |
| N[C@@H](CCC(=O)NCP(=O)(O)O)C(=O)O |  | > 100 | > 100 | > 100 | > 100 | > 100 | > 100 |  | > 100 | > 100 | > 100 |
| CC1(C)O[C@H]2OC(CO[Si](C)(C)C(C)(C)C)C(N=[N+]=[N-])[C@H]2O1 (stereo not given in full) | 38.3 | 21.8 | 34.2 |  | 66.4 | 37.7 | 38.1 | 32.6 |  | 35.5 |  |
| CCN(CC)CCNC(=O)c1cc2cc(NC(=O)c3cc4cc([N+](=O)[O-])ccc4[nH]3)ccc2[nH]1 |  | > 100 |  | > 100 | > 100 | > 100 | > 57 | > 100 | > 100 | > 87.1 | 28.9 |
| COC(=O)C1CC(C=[N+](C)C)=C(SC)N1C(=O)OCc1ccccc1 (stereo not given) |  | > 100 | > 100 | > 100 | > 100 | > 100 | > 100 | > 100 | > 100 | > 100 | > 100 |
| Cn1c(=O)c2c(nc3n2CC(C(=O)O)N3)n(C)c1=O (stereo not given) |  | > 100 | > 100 | > 100 | > 100 | > 100 | > 100 | > 100 | > 100 | > 100 | > 100 |
| COC(=O)[C@@H](O)[C@](O)(CCC(C)C)C(=O)O[C@@H]1C(OC)=C[C@]23CCCN2CCc2cc4c(cc2[C@H]13)OCO4 | > 27 | 20 | 13 |  |  | 71.4 | 7.15 | 5.41 |  | 6.06 | 2.99 |
| Nc1c(-c2ccc(Cl)c(Cl)c2)c2ccc([N+](=O)[O-])cc2c(=O)n1-c1nc2ccccc2s1 | 0.525 | > 100 | > 100 |  | > 100 | 6.8 | > 100 | 16.8 | > 24.9 | > 100 | 2.89 |
| CCCCCCCC/C=C\CCCCCCCCCCCC(=O)O | 57.5 | > 125 | 70.8 |  |  | > 125 | 36.5 | 18.4 |  | > 125 | 40.4 |
| CCOP(=O)(OCC)C(F)(F)c1ccc(CC(NC(=O)OC(C)(C)C)C(=O)O)cc1 (stereo not given) | > 10 | > 10 | > 10 | > 10 | > 10 | > 10 | > 10 |  | > 10 | > 10 | > 10 |
| CC(=O)Nn1c(=S)[nH]c2ccccc21 | > 100 | > 100 | > 100 | > 100 | > 100 | > 100 |  | > 100 | > 100 | > 100 | > 100 |
| c1ccc2c3[nH]c(c2c1)=Nc1ccc(cc1)-c1nc2cc(ccc2o1)N=c1[nH]c(c2ccccc12)=Nc1ccc2nc(oc2c1)-c1ccc(cc1)N=3 | > 100 | > 100 | > 100 |  | > 100 | > 100 |  | > 100 |  | > 100 | > 100 |
| C=CC1(CC/C(=C\[N+](=O)[O-])c2ccc(OC)c(OC)c2)OCC(C)(C)CO1 | > 100 |  | 47.2 | 75.8 | 56.3 | 35.5 | 39.8 | 36.3 | 33.2 | 26.8 | 43.4 |
| O=C(/C=C/c1ccc2c(c1)OCO2)c1ccc(O)cc1 | 35.3 | 30.2 |  | 31.5 | 34.1 | 3.52 | 28.9 | 29.6 |  | 28.8 | 31.3 |
